# In patent US6900239B2, “Tumor chemopotentiation using isocoumarin derivatives” (ILWZ ILEX Products, Inc., priority 2000, dated 2005):
# Legend:
# [1] = tested on: B16-BL6 melanoma cells; assay: Experimental tumor metastasis (lung colonies); assay type: in vivo, BDF1 mice; settings: for Inhibition (%): days 1~13; for Number of lung metastases (Mean ± S.D.): days 1~13, counted day 14
# Source text: To determine the antitumor effect of NM-3 on metastatic tumor growth, B16-BL6 melanoma cells (2×10^4 cells per mouse) were transplanted into BDF1 mice (female, 5 weeks old) via the tail vein. NM-3 was continuously administered via the oral route for 13 days following transplantation of the tumor cells. On day 14, the lungs were excised and fixed, and the metastatic colony numbers were counted.
# [2] = tested on: MDAMB-435 human breast tumor xenografts; assay: MDAMB-435 orthotopic model, NM-3 with paclitaxel, first study; assay type: in vivo, female NCRNU nude mice; settings: NM-3 100 mg/kg I.P. daily alone
# Source text: In order to determine the effect of the combination of NM-3 with the cytotoxic drug, paclitaxel on human breast tumor xenografts, female NCRNU nude mice were implanted with MDAMB-435 cells into the subaxillary mammary fat pad. […]
# [3] = tested on: Lewis Lung Carcinoma (LLC); assay: NM-3 and ionizing radiation, tumor growth; assay type: in vivo, C57BL/6 nude mice
# Procedure: (§1) The effects of NM-3 and IR on tumor growth were assessed in Lewis Lung Carcinoma (LLC), Seg-1, and SQ-20B tumors implanted in C57BL/6 nude mice.
# By day 7, LLC tumors in the control group and the NM-3 group grew to 8.02±1.24 and 6.19±0.44 times original volume, respectively. Animals in these treatment groups were sacrificed on day 7 due to tumor burden. LLC tumors in the IR (20+20 Gy) group initially grew and then regressed to 1.06±0.08 times original volume (day 7). Regression was followed by regrowth to 2.98±0.83 times original volume at day 15 when the experiment was terminated. […] (FIG. 8A)
# [4] = tested on: SQ-20B tumors; assay: NM-3 and ionizing radiation, tumor growth; assay type: in vivo, C57BL/6 nude mice
# Procedure: as §1
# In experiments conducted using SQ-20B tumors, control tumors grew to 5.2±0.94 times original volume by day 20. […] Animals in these two groups were subsequently sacrificed because of tumor burden. […] By day 38, IR treated tumors regrew to twice original volume.
# [5] = tested on: Seg-1 tumors; assay: NM-3 and ionizing radiation, tumor growth; assay type: in vivo, C57BL/6 nude mice
# Procedure: as §1
# Seg-1 tumors in the control group and the NM-3-treated group grew to 6.30±0.42 and 6.74±0.62 times original volume by day 15 at which time the animals were sacrificed due to tumor burden. Tumors in the IR (4 doses of 5 Gy) group initially regressed (0.64±0.03 times original volume, day 7) and then regrew (1.83±0.11, day 15). […] (FIG. 8B).
# [6] = tested on: MKN28; assay: Cell growth (WST-1) in the presence of NM-3; assay type: cell-based; settings: Homo sapiens, MKN-28, 72 h; 3 days culture; value somewhat low due to the influence of DMSO
# [7] = in vivo; cited from earlier work
# [8] = tested on: MM1.S human multiple myeloma cells; assay: Apoptosis by annexin V-FITC and PI staining; assay type: cell-based
# Procedure: Apoptosis was determined by staining cells with annexin V-FITC and propidium iodide (PI). Cells were treated with DEX in the presence or absence of NM-3. NM-3 was added 2 hours before the addition of DEX. After 24 hours of DEX exposure, cells were washed twice with cold PBS, resuspended in binding buffer (10 mM HEPES/NaOH (pH 7.4), 140 mM NaCl, 2.5 mM CaCl2), and then stained with annexin V-FITC (Clontech Laboratories) and PI (Boehringer-Manheim). Apoptosis was analyzed by using a flow cytometer (EPICS XL-MCL, Coulter Corp). The cultured cells were also subjected to cell cycle analysis. Briefly, cells were washed twice with PBS and fixed with 70% ethanol. Cells were then washed with 0.5 ml PBS and 1.0 ml phosphate-citric acid buffer (0.2 M Na2HPO4 and 0.1 M citric acid (pH 7.8)), treated with 200 μg/ml RNase for 15 min at 37° C., and stained with 50 μg/ml PI for 30 min at room temperature in the dark. Cells were filtered through 35-μm diameter mesh to remove clumps. Nuclear staining was analyzed by a flow cytometer. Cells with fractional DNA content located on DNA frequency histograms to the left of the G1 peak (sub-G1 cells) were identified as apoptotic cells.
# [9] = tested on: Human umbilical vein endothelial cells (HUVEC); assay: HUVEC colony formation with a constant amount of gamma radiation; assay type: cell-based
# Procedure: Human umbilical vein endothelial cells (HUVEC) were exposed to a constant amount of gamma radiation in the presence or absence of various concentrations of NM-3 in the culture medium. The numbers of HUVEC colonies that formed following the different treatments were recorded and normalized to the number of colonies formed under control (no NM-3) conditions and the results are shown in FIG. 1. […] For comparison, HUVEC cells were treated with either angiostatin or endostatin, two additional anti-angiogenic proteins.
# [10] = tested on: Lewis Lung carcinoma (LLC) tumors; assay: Radiation sensitivity of Lewis Lung carcinoma in vivo; design: species or system C57BL/6 female mice
# Procedure: To determine whether NM-3 treatment increases the radiation sensitivity of tumors in vivo, Lewis Lung carcinoma (LLC) tumors were established in C57BL/6 female mice (Frederick Cancer Research Institute) prior to NM-3 and radiation treatment. LLC cells (1×10^6 cells) were injected in the right hind limb of the mice and tumors were allowed to grow a volume of 250-350 mm^3. Tumor volumes were determined by direct measurements with calipers calculated by the formula: V=length×width×depth/2. Mice were then divided into groups and treated with NM-3 (100 mg/kg total) or PBS for two days before beginning radiation therapy. Animals then received NM-3 (25 mg/kg/day, i.p.) or PBS approximately four hours prior to radiation treatment. Tumors were irradiated using a GE Maxitron X-ray generator operating at 150 kV, 30 mA, using a 1 mm aluminum filter at a dose rate of 188 cGy/minute. Mice were shielded with lead except for the tumor-bearing area in the hind limb. Treatments and tumor measurements continued for a period of 17 days (see FIG. 4). […] Whereas control tumors reached 8 initial tumor volumes (Vo) after 8 days, X-ray treated tumors required 16 days to grow to this size. […] For comparison, data are plotted with two additional anti-angiogenic drugs, antiostatin and endostatin (see FIGS. 3B and 3C).
# [11] = NM-3 combined with IR (4 doses of 5 Gy)
compound,measurement,setting,value
"COc1cc(O)c2c(=O)oc(C(C)C(=O)O)cc2c1 (stereo not drawn) [NM-3, 2-(8-hydroxy-6-methoxy-1-oxo-1H-2-benzopyran-3-yl) propionic acid]",Inhibition (%),[1]; 0.08 mg/kg p.o.,−5.3%
same,Number of lung metastases (Mean ± S.D.),[1]; 0.08 mg/kg p.o.,88.7 ± 16.1
same,Inhibition (%),[1]; 0.31 mg/kg p.o.,24.0%
same,Number of lung metastases (Mean ± S.D.),[1]; 0.31 mg/kg p.o.,64.0 ± 23.8
same,Inhibition (%),[1]; 1.25 mg/kg p.o.,13.8%
same,Number of lung metastases (Mean ± S.D.),[1]; 1.25 mg/kg p.o.,72.6 ± 20.6
same,Inhibition (%),[1]; 5.0 mg/kg p.o.,18.8%
same,Number of lung metastases (Mean ± S.D.),[1]; 5.0 mg/kg p.o.,68.4 ± 16.9
same,Number of pleural metastatic foci versus control,[1]; 0.08 to 5 mg/kg p.o.,reduction in the number of pleural metastatic foci
same,% Tumor Growth Inhibition,[2],15.29%
same,Final Tumor Wt. (mg) +/− SEM,[2],180.0 ± 18.13 mg
same,Mice with Complete Shrinkage,[2]; n 9,0
same,Tumor volume,"[3]; NM-3 alone, day 7",6.19±0.44 times original volume
same,Mean tumor volume compared with IR alone,"[3]; NM-3 combined with IR (20+20 Gy), day 3, 4, 5, 9, 11, 13 and 15",significantly reduced mean tumor volume
same,Tumor volume,"[4]; NM-3 alone, day 20",4.3±1.03 times original volume
same,Tumor size,"[4]; NM-3 and IR (65 Gy), by day 6",doubled in size
same,Tumor regrowth,"[4]; NM-3 and IR (65 Gy), by day 38, p=0.006 vs IR alone",failed to reach original volume
same,"Tumor volume, % of original volume","[4]; NM-3 and IR (65 Gy), day 23",77%
same,Tumor volume,"[5]; NM-3 alone, day 15",6.74±0.62 times original volume
same,Growth delay compared to IR alone group,[5]; [11],3 days
same,Growth delay compared to the control group,[5]; [11],14 days
same,Mean tumor volume compared with IR alone,"[5]; NM-3 combined with IR (4 doses of 5 Gy), days 15, 17, 19, 21 and 23",significantly reduced mean tumor volume
same,IC50,[6],175 µg/mL
same,Stability,[7],highly stable
same,Population of cells positive for annexin V and PI (apoptotic cells),"[8]; NM-3 alone, 50-200 μg/ml",did not change the population of cells positive for annexin V and PI
same,DEX-induced increase of apoptotic cells,"[8]; pretreatment with NM-3, DEX 1 μM, 24 hours",further enhanced
same,"ED50, decrease of HUVEC colony formation",[9],approximately 1 μg/ml
same,Further tumor growth,"[10]; NM-3 25 mg/kg/day i.p. added to radiotherapy, 17 days",markedly reduced
same,Tumor growth,[10]; NM-3 alone,did not inhibit tumor growth at all
same,Radiation sensitization of tumors,[10]; combined with X-ray treatment,dramatically enhances the sensitivity
